These are literature values, as cited in US20030165566A1, “Sedative non-benzodiazepine formulations” (priority 2002, published 2003).

Structures can show the parent of a compound that is named as a salt. Where two headings read alike, the source gives them in different places.

The conditions of data set [1]: in vivo.
The conditions of data set [2]: 10 mg.
The mark [3] stands for this setting: single 20 mg oral dose, elderly (>70 years) vs 20 to 40 years.
Setting [4] is: single 20 mg oral dose, elderly subjects (>70 years).
Setting [5] is: single 20 mg oral dose, younger adults (20 to 40 years).
Setting [6] is: 20 minutes after a meal vs fasting.

On to `Cc1ccc(-c2nc3ccc(C)cn3c2CC(=O)N(C)C)cc1` [Zolpidem], for which, under setting [3], the “increase of mean AUC, elderly vs younger adults” value is recorded as 64%; the “increase of mean Cmax, elderly vs younger adults” value is 50%; the “increase of mean T1/2, elderly vs younger adults” value is 32%. Besides, under setting [4], the “mean AUC” value is recorded as 1,562 ng/hr/ml, the “mean Cmax” value is 284 ng/mL and the “mean T1/2” value is 2.9 h. Under setting [5], the “mean AUC” value is 955 ng/h/mL, the “mean Cmax” value is 255 ng/mL and the “mean T1/2” value was 2.2 h. For the same molecule, the half-life entry in data set [1] is “approximately 2.5 hours”.
Take `Cc1ccc(-c2nc3ccc(C)cn3c2CC(=O)N(C)C)cc1` [zolpidem tartrate]: in data set [2] (20 minutes after a meal), the “mean Tmax” value is 2.2 h. For the same molecule, in data set [2] (setting [6]), the “decrease of mean AUC with food” value was 15%, the “decrease of mean Cmax with food” value is 25%, the half-life with food result is listed as “remained unchanged” and the “prolongation of mean Tmax with food” value is 60%. Moreover, the “mean Tmax” value in data set [2] (fasting) was 1.4 h. Moreover, the accumulation result (elderly subjects, nightly oral dosing 10 mg for 1 week) is reported as “did not accumulate”.
